{"source": "patent US20210300926A1", "about": "“NEW BETA-LACTAMASE INHIBITORS TARGETING GRAM NEGATIVE BACTERIA” (priority 2017, published 2021)", "key": {"[1]": {"system": "E. coli Top10", "test": "MIC determination by microdilution, E. coli Top10 without β-lactamase (None)", "assay_type": "cell-based", "conditions": "Escherichia coli; Cefamandole alone; E. coli Top10, β-lactamase None; read-out: MIC of β-lactam, inhibitor None", "from_the_text": "(§1) Plasmid and strain construction. For antibiotic susceptibility testing, the R-lactamase genes were cloned into the vector pTRC-99k, which is a derivative of pTRC99a (Pharmacia) obtained by replacing the β-lactamase resistance gene by a kanamycin resistance gene (Km, lacl, pTRC promoter, oriVcolEl; D. Mengin-Lecreulx, unpublished). Recombinant plasmids were introduced by electrotransformation into Escherichia coli Top10. For β-lactamase production, fragments of the β-lactamase genes encoding soluble enzymes, i.e. devoid of the signal peptides, were cloned into the vector pET-TEV generating translational fusions with a vector-encoded N-terminal 6×His Tag followed by a TEV cleavage site ([…]) (1).\n(§2) MIC determination. MICs of β-lactams were determined by the microdilution method in MH broth according to Clinical and Laboratory Standards Institute (CLSI) recommendations (12). Diazabicyclooctane were used at a fixed concentration of 15 μM (4 μg/ml for avibactam). Clavulanate was tested at 4 μg/ml. IPTG (500 μM) was added to the microdilution plates to induce production of the -lactamase. The precultures were grown in BHI broth containing IPTG (500 μM) and kanamycin (50 μg/ml) for plasmid maintenance. Reported MICs are the medians from five biological repeats obtained in two independent experiments."}, "[2]": {"system": "E. coli Top10 producing TEM-1", "test": "MIC determination by microdilution, E. coli Top10 producing TEM-1", "assay_type": "cell-based", "conditions": "Escherichia coli, read-out: MIC of β-lactam, inhibitor None", "from_the_text": "as §1, §2"}}, "data": [{"smiles": "Cn1nnnc1SCC1=C(C(=O)O)N2C(=O)[C@@H](NC(=O)[C@H](O)c3ccccc3)[C@H]2SC1", "note": "[Cefamandole]", "values": [{"measurement": "MIC", "setting": "[1]", "result": 2, "unit": "µg/mL"}, {"measurement": "MIC", "setting": "[2]", "result": "> 2050", "unit": "µg/mL"}]}]}
